A short description of series [1]: Cytotoxicity against human MRC5 cells after 24 hrs by MTT assay.
For another series, the system named is HeLa. As to the kind of experiment: Selectivity factor, ratio of IC50 for human MRC5 cells to IC50 for human HeLa cells.
A further series has as its system MCF7. As to the kind of experiment: Selectivity factor, ratio of IC50 for human MRC5 cells to IC50 for human MCF7 cells.
Series [2] can be described thus: Cytotoxicity against human MCF7 cells after 24 hrs by MTT assay. It is filed as functional, cell-based. Particulars: MCF7, 24 h; call rule not given here. On the technique in general: Tetrazolium assays rely on reduction of a dye to a coloured formazan, in cell work by metabolically active cells.
Series [3] can be described thus: Cytotoxicity against human HeLa cells after 24 hrs by MTT assay. It is filed as functional, cell-based.
Series [4] in a line: Drug uptake in human MCF7 cells at 20 uM after 2 hrs by fluorescence microscopy. Particulars: mcf7, 2 h. Format: ADME, cell-based.

SMILES strings stand for the structures.

Results on twelve compounds are retold here after ChEMBL document CHEMBL3864150, “Synthesis and cytotoxicity study of novel 3-(triazolyl)coumarins based fluorescent scaffolds” (Bioorg Med Chem Lett, 2016).

As to `NCCC(=O)N1Cc2ccccc2-c2nnn(-c3cc4ccccc4oc3=O)c2-c2ccccc21`, 110 µM corresponded to half-maximal inhibition in series [1] (IC50 at 24 h). Also, the “Ratio IC50” value with HeLa was determined as 5.55; in the series with MCF7, 8.68. Also, the IC50 (in general, the point on the concentration scale where inhibition reaches its midpoint) in series [2] was determined as 12.7 µM; in series [3] it was 19.8 µM.
In series [1], `NCCC(=O)N1Cc2ccccc2-c2nnn(-c3cc4ccc(O)cc4oc3=O)c2-c2ccccc21` displayed an IC50 at 24 h of 90.2 µM. In series [4], the Drug uptake entry was “Active”. Also, the entries for the “Ratio IC50” value in the series with HeLa and with MCF7 were 4.27 and 4.9, respectively. Further, the IC50 in series [2] was found to be 18.4 µM; in series [3], 21.1 µM.
Compound `NCCC(=O)N1Cc2ccccc2-c2nnn(-c3cc4ccc(OCCBr)cc4oc3=O)c2-c2ccccc21` yielded an IC50 at 24 h in series [1] of 121 µM. Further, the “Ratio IC50” value is 6.19 with HeLa and 6.52 in the series on MCF7. In addition, the IC50 in series [2] stood at 18.5 µM; in series [3], 19.5 µM.
The matching figures for `COc1cccc2cc(N=[N+]=[N-])c(=O)oc12`: 58.7 µM, 1.61, 1.85, 31.5 µM and 36.4 µM.
The matching figures for `NCCC(=O)N1Cc2ccccc2-c2nnn(-c3cc4cc(Br)ccc4oc3=O)c2-c2ccccc21`: 100 µM, 5.49, 9.4, 10.7 µM and 18.2 µM.
`[N-]=[N+]=Nc1cc2cc(Br)ccc2oc1=O` registered an IC50 at 24 h in series [1] of 70.4 µM. Besides, the “Ratio IC50” value is recorded as 2.48 with HeLa and 2.97 in the series on MCF7. The IC50 was determined as 23.7 µM in series [2] and 28.3 µM in series [3].
The matching figures for `[N-]=[N+]=Nc1cc2cc(Cl)cc(Cl)c2oc1=O`: 67.2 µM, 2.43, 3.6, 18.6 µM and 27.6 µM.
`[N-]=[N+]=Nc1cc2ccc(O)cc2oc1=O` gave an IC50 at 24 h in series [1] of 62.7 µM. Also, the “Ratio IC50” value with HeLa is reported as 1.5; in the series with MCF7, 1.63. The IC50 in series [2] was found to be 38.4 µM; in series [3], 41.6 µM.
`[N-]=[N+]=Nc1cc2ccccc2oc1=O` came in with an IC50 at 24 h in series [1] of 70.2 µM. Further, the “Ratio IC50” value came to 2.37 with HeLa and 2.63 in the series on MCF7. For the same compound, the IC50 in series [2] was found to be 26.7 µM; in series [3], 29.6 µM.
On to `NCCC(=O)N1Cc2ccccc2-c2nnn(-c3cc4cc(Cl)cc(Cl)c4oc3=O)c2-c2ccccc21`, for which the IC50 at 24 h in series [1] is 185 µM. Also, in series [4], the Drug uptake result is given as “Active”. The “Ratio IC50” value stood at 10.58 with HeLa and 18.84 with MCF7. Moreover, the IC50 in series [2] is 9.83 µM; in series [3], 17.5 µM.
Take `COc1cccc2c1C(=O)c1c(O)c3c(c(O)c1C2=O)C[C@@](O)(C(=O)CO)C[C@@H]3O[C@H]1C[C@H](N)[C@H](O)[C@H](C)O1` [DOXORUBICIN]: in series [1], the IC50 at 24 h is 70.6 µM. For the same compound, in series [3], inhibition was half-maximal at 5.2 µM (IC50).
In series [1], `COc1cccc2cc(-n3nnc4c3-c3ccccc3N(C(=O)CCN)Cc3ccccc3-4)c(=O)oc12` yielded an IC50 at 24 h of 92.8 µM. The results for the “Ratio IC50” value in the series with HeLa and in the series on MCF7 were 3.54 and 4.24, respectively. The IC50 in series [2] worked out at 21.9 µM; in series [3], 26.2 µM.
